The values below come from patent publication US20120058499A1, “Bioluminescent Detection of Protease Activity” (priority 2010, published 2012).

Holding throughout (assay type): biochemical
The subject of experiment [1] is UCHL3, USP2core, USP7, and USP8. The experiment in a line: Limit of detection for four isopeptidases, Ub-LUC vs Ub-AMC and Ub-Rhodamine110. To be noted: the four enzymes. Here is the method:
The Ub-amino-luciferin substrate was compared to the Z-Arg-Leu-Arg-Gly-Gly (SEQ ID NO: 1)-amino-luciferin substrate (Promega DUB-Glo™ substrate) to determine the limit of detection of the activities of four different isopeptidases (UCHL3, USP2core, USP7, and USP8). For all enzymes, these two substrates were tested in parallel using the DUB-Glo™ assay system (Promega) according to the manufacturer's instructions. All enzymes were diluted into 50 mM HEPES, pH 7.5, 10 mM DTT, 0.1% Prionex (Sigma-Aldrich). […] The signal in relative luminescence units (RLUs) was measured at 30 minutes from reaction assembly on an Envision multi-label plate reader (Perkin Elmer). The signal to background ratio (S/B) was calculated as (maximum signal−signal in absence of enzyme)/(signal in absence of enzyme).
The Ub-amino-luciferin (Ub-LUC) substrate was compared to the Ub-AMC substrate (FIG. 3) and the Ub-Rhodamine110 (Ub-Rho) substrate (FIG. 4), to determine the limit of detection for the activities of four different isopeptidases (UCHL3, USP2core, USP7, and USP8). […] Reactions were assembled through the addition of 50 μl diluted isopeptidase to 50 μl of either Ub-AMC or Ub-Rhodamine110, and the signal in relative fluorescence units (RFUs) was measured at 30 minutes on an Envision multi-label plate reader (Perkin Elmer). […]

The target of experiment [2] is T1, USP2core (Homo sapiens, UniProt O75604).
T1 construct: USP2core (the common catalytic core domain of the two isoforms of USP2, USP2a and USP2b)
T1 sequence (O75604 267-599 limits assumed): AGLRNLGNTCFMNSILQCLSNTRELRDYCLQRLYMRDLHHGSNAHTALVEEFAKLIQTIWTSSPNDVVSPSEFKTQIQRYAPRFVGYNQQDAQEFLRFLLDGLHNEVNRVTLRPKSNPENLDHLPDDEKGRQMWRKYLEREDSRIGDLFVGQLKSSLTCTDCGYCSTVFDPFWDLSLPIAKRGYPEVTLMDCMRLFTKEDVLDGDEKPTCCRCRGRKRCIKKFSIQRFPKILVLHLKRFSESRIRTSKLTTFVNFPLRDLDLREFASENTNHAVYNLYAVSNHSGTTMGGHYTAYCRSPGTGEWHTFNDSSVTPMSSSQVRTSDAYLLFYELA
The experiment in a line: Isopeptidase cleavage of substrates (DUB-Glo luminescence / fluorescence), S/B. Conditions: USP2core 0.5 nM. Here is the method: (§1) The Ub-amino-luciferin substrate was compared to the Z-Arg-Leu-Arg-Gly-Gly (SEQ ID NO: 1)-amino-luciferin substrate (Promega DUB-Glo™ substrate) to determine the limit of detection of the activities of four different isopeptidases (UCHL3, USP2core, USP7, and USP8). For all enzymes, these two substrates were tested in parallel using the DUB-Glo™ assay system (Promega) according to the manufacturer's instructions. All enzymes were diluted into 50 mM HEPES, pH 7.5, 10 mM DTT, 0.1% Prionex (Sigma-Aldrich). For testing Z-Arg-Leu-Arg-Gly-Gly (SEQ ID NO: 1)-amino-luciferin, final isopeptidase concentrations were as follows: UCHL3 equal to approximately 0.35 to 50 nM; USP2core equal to approximately 10 to 500 nM, USP7 equal to approximately 0.1 to 50 nM, and USP8 equal to approximately 20 to 500 nM. For testing Ub-amino-luciferin, final isopeptidase concentrations were as follows: UCHL3 equal to approximately 0.05 to 50 pM; USP2core, USP7, and USP8 equal to approximately 0.5 to 500 pM. Reactions were assembled through addition of 50 μl of diluted enzyme and 50 μl of DUB-Glo™ reaction mixture supplemented with either Z-Arg-Leu-Arg-Gly-Gly (SEQ ID NO: 1)-amino-luciferin (final concentration of 20 μM) or Ub-amino-luciferin (final concentration of 100 nM). The signal in relative luminescence units (RLUs) was measured at 30 minutes from reaction assembly on an Envision multi-label plate reader (Perkin Elmer). The signal to background ratio (S/B) was calculated as (maximum signal−signal in absence of enzyme)/(signal in absence of enzyme).
(§2) The Ub-amino-luciferin (Ub-LUC) substrate was compared to the Ub-AMC substrate (FIG. 3) and the Ub-Rhodamine110 (Ub-Rho) substrate (FIG. 4), to determine the limit of detection for the activities of four different isopeptidases (UCHL3, USP2core, USP7, and USP8). All enzymes were diluted into 50 mM Tris, pH 8.0, 5 mM DTT, 0.05% (w/v) CHAPS. Final isopeptidase concentrations were as follows: UCHL3 equal to approximately 2 pM to 40 pM; USP2core, USP7, and USP8 were equal to approximately 10 to 1000 nM. Either Ub-AMC or Ub-Rhodamine110 (final concentration equal to 250 nM) were diluted into 50 mM Tris, pH 8.0, 5 mM DTT, 0.05% (w/v) CHAPS. Reactions were assembled through the addition of 50 μl diluted isopeptidase to 50 μl of either Ub-AMC or Ub-Rhodamine110, and the signal in relative fluorescence units (RFUs) was measured at 30 minutes on an Envision multi-label plate reader (Perkin Elmer). For Ub-AMC, fluorescence was monitored with filters corresponding to excitation at 340 nm and emission at 460 nm. For Ub-Rhodamine110, fluorescence was monitored with filters corresponding to excitation at 485 nm and emission at 531 nm. The signal to background (S/B) was calculated as (maximum signal−signal in absence of enzyme)/(signal in absence of enzyme).

Experiment [3] deals with T2, USP8 (Homo sapiens, UniProt P40818).
T2 sequence (P40818 1-1118): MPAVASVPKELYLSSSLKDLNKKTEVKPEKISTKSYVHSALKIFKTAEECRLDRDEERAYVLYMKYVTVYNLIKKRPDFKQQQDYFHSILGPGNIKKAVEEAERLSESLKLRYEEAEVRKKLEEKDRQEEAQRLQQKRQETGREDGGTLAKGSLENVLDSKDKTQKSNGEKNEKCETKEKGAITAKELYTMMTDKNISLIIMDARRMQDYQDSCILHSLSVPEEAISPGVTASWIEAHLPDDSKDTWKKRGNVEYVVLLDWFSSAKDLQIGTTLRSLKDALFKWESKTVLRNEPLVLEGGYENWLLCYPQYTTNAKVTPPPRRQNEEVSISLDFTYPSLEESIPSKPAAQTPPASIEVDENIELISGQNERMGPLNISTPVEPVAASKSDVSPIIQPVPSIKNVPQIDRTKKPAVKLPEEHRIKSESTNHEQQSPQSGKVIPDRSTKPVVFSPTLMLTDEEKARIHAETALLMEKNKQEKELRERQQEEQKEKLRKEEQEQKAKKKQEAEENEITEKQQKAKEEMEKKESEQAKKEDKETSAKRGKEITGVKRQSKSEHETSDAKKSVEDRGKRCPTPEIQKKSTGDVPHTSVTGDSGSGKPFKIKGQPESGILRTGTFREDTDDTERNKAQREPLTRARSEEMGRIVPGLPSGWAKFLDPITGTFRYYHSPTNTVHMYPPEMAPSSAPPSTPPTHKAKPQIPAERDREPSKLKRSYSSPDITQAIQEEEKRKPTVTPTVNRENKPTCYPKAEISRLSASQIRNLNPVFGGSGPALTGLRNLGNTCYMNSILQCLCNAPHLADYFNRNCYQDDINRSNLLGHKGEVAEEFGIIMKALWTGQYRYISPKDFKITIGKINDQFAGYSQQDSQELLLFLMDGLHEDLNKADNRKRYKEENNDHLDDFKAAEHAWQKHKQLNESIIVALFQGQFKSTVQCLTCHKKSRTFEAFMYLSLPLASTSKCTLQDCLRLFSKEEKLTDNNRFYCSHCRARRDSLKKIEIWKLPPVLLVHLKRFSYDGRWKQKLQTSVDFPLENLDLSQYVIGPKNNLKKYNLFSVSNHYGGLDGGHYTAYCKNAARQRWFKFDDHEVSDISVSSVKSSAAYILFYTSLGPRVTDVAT
The description is as above. Conditions: USP8 0.5 nM. Here is the method:
as §1, §2

Experiment [4] has as its target USP7 (Homo sapiens, UniProt Q93009). The experiment is described as above. To be noted: USP7 0.5 nM. The protocol: as §1, §2

Chain of USP7 (Q93009 whole entry, species assumed): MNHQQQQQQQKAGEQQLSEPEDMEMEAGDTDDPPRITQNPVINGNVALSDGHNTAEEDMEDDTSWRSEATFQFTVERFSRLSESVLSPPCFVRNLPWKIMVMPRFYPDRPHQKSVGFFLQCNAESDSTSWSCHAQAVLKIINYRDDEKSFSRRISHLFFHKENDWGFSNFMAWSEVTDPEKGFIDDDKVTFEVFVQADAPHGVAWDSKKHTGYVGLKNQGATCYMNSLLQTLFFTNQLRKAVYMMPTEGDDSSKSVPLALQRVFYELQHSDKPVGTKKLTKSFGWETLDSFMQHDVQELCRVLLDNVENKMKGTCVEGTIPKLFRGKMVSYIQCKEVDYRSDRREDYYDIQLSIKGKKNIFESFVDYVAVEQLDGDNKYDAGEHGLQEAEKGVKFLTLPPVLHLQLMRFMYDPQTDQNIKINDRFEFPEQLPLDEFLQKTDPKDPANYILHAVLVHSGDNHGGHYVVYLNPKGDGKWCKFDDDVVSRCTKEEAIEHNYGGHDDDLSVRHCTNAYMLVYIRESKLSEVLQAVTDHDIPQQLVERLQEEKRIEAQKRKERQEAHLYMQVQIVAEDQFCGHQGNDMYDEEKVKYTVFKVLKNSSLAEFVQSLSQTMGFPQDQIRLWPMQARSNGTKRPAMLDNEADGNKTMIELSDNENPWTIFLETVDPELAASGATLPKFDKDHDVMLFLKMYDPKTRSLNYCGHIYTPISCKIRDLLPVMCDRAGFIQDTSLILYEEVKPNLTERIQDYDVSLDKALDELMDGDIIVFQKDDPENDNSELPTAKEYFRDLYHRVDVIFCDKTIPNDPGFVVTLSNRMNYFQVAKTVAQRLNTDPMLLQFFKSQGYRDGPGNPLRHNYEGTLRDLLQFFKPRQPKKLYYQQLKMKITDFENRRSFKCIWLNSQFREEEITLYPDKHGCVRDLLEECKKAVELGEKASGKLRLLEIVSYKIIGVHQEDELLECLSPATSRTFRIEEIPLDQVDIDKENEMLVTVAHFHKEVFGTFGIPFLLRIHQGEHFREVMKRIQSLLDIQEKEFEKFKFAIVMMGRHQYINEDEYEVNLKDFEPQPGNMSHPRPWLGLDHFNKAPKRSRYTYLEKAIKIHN

On to Ub(1-76)-aminoluciferin [Ub-LUC], for which the “fold greater S/B compared to Ub-rhodamine110” value in experiment [1] is reported as “more than 30 fold”. Moreover, the “limit of detection (S/B>3) increased over Ub-rhodamine110” value in experiment [1] is on record as “more than 30 fold”. In addition, the “S/B increase relative to both Ub-AMC and Ub-Rhodamine110” value in experiment [2], in experiment [3] and in experiment [4] was around 100 fold each time.
